Read-outs that look alike come from different tables or passages of the source.

Data on 13 molecules can be found in patent publication US8658648B2, “Modified chloroquines with single ring moiety or fused ring moiety” (DesignMedix, Inc., priority 2008, dated 2014).

Common to all, as to assay type: cell-based
The test system of assay [1] is 7G8 (CQ^R) P. falciparum strain. In words: In vitro fluorescence (Sybr Green I) assay for IC50 against 7G8 strain. As to conditions: Plasmodium falciparum, read-out: IC50-7G8. The text has this: (§1) This method employs fluorescent detection of the level of parasitemia in cultured red blood cells and can be automated for high-throughput screening of antimalarial RCQs. This exemplary method allows the inhibitory agent (such as a MCQ) to be in contact with the parasite for an entire developmental cycle without purine starvation, which is in contrast to the traditional ^3H-hypoxanthine method (Desjardins et al. 1979. Antimicrob. Agents Chemother. 16(6):710-718, which is incorporated herein by reference in its entirety). Briefly, to perform the Smilkstein et al. method, an initial parasitemia of approximately 0.2% is attained by adding uninfected red blood cells (RBCs) to a stock culture of Plasmodium-infected RBCs. […] After a period of incubation (such as about 72 hours), a sufficient amount (e.g., 100 μL) of a fluorescent DNA binding dye-detergent mixture (e.g., Sybr Green I dye-detergent mixture) to lyse cells and bind to DNA is added to the reactions. Because uninfected RBCs have no DNA, only parasite DNA (in infected RBCs) is available for binding to the fluorescent dye (e.g., Sybr Green I). Samples are then incubated in the dark for a period of time (e.g., one hour), followed by measurement of levels of fluorescence. For Sybr Green 1, excitation and emission wavelength are 485 and 530 nm, respectively. Fluorescence readings, which represent the amount of parasite DNA in the sample, can be plotted against the Log [drug] and fit to a curve by nonlinear regression to obtain the IC50 value for the tested compound.
(§2) An in vitro fluorescence assay for determining IC50 of antimalarial drugs was performed as previously described by Smilkstein et al. (2004. Antimicrob. Agents Chemother. 48(5):1803-1806). This procedure can be automated for high-throughput screening of the antimalarial activities of RCQs described herein. This method also allows the tested agent (e.g., a MCQ) to be in contact with the parasite for an entire developmental cycle without purine starvation (which occurs with the commonly used ^3H-hypoxanthine method; see, e.g., Desjardins et al. 1979. Antimicrob. Agents Chemother. 16, (6):710-7188).
(§3) Briefly, an initial parasitemia of approximately 0.2% was attained by addition of uninfected red blood cells to a stock culture of cells infected with Dd2 (CQ^R), 7G8 (CQ^R), or D6 (CQ^S) P. falciparum strains. A 10 mM solution of a test compound (in DMSO) was prepared. The test compound (at a final concentration from 10^−11 to 10^−4 M) and infected red blood cells (at a final concentration of 2% (v/v)) were mixed in 100 μL samples in individual wells of a 96-well plate. Each sample was prepared in triplicate. A triplicate set of reactions containing CQ (instead of the test compound) was included as a control. After a 72 hour incubation period, Sybr Green I dye-detergent mixture (100 μL) was added to each reaction. The samples were further incubated for an hour in the dark, and then placed in a 96-well fluorescence plate reader (Gemini-EM, […]) and analyzed with excitation and emission wavelength bands at 485 and 530 nm, respectively. Fluorescence readings were plotted against the Log [drug], and curve fitting performed by nonlinear regression to find the IC50 value.

Assay [2] deals with Dd2 (CQ^R) P. falciparum strain. Put plainly: In vitro fluorescence (Sybr Green I) assay for IC50 against Dd2 strain. The conditions noted are these: Plasmodium falciparum, read-out: IC50-Dd2.
Text: as §1, §2, §3

Assay [3] concerns D6 (CQ^S) P. falciparum strain. In words: In vitro fluorescence (Sybr Green I) assay for IC50 against D6 strain. As to conditions: Plasmodium falciparum, read-out: IC50-D6.
Text: as §1, §2, §3

The mark [4] stands for this setting: Erythrocyte, 7G8 (CQ^R) strain in infected red blood cells, 72 hour incubation.
Where [5] appears, read: Erythrocyte, Dd2 (CQ^R) strain in infected red blood cells, 72 hour incubation.
[6] abbreviates: Erythrocyte, D6 (CQ^S) strain in infected red blood cells, 72 hour incubation.

As usually defined, the IC50 is the concentration that gives 50% inhibition. Take `Clc1ccc(N2CCN(CCCNc3ccnc4cc(Cl)ccc34)CC2)cc1` [7-chloro-N-(3-(4-(4-chlorophenyl)piperazin-1-yl)propyl)quinolin-4-amine]: the concentration for half-maximal inhibition (IC50) in assay [1] (7G8, Erythrocyte, 72 h) came to 0.09 nM; in assay [2] (DD2, Erythrocyte, 72 h), 0.33 nM; in assay [3] (D6, Erythrocyte, 72 h) it was 0.005 nM.

Turning to `Clc1ccc2c(NCCN3CCN(c4ccccn4)CC3)ccnc2c1` [7-chloro-N-(2-(4-(pyridin-2-yl)piperazin-1-yl)ethyl)quinolin-4-amine], the half-maximal inhibitory concentration (IC50) in assay [1] (setting [4]) is 12.2 nM; in assay [2] (setting [5]), 3.9 nM; in assay [3] (setting [6]), 4.57 nM.

On to `FC(F)(F)c1ccc(N2CCN(CCCNc3ccnc4cc(Cl)ccc34)CC2)nc1` [7-chloro-N-(3-(4-(5-(trifluoromethyl)pyridin-2-yl)piperazin-1-yl)propyl)quinolin-4-amine], for which the values for the IC50 in assay [1] (setting [4]), in assay [2] (setting [5]) and in assay [3] (setting [6]) were 1 nM, 0.83 nM and 0.5 nM, respectively.

Take `O=[N+]([O-])c1cnc(N2CCN(CCCNc3ccnc4cc(Cl)ccc34)CC2)c([N+](=O)[O-])c1` [7-chloro-N-(3-(4-(3,5-dinitropyridin-2-yl)piperazin-1-yl)propyl)quinolin-4-amine]: the concentration for half-maximal inhibition (IC50) in assay [1] (setting [4]) was determined as 0.9 nM; in assay [2] (setting [5]), 0.85 nM; in assay [3] (setting [6]), 0.45 nM.

For `Clc1ccc2c(NCCCN3CCN(c4cccnc4)CC3)ccnc2c1` [7-chloro-N-(3-(4-(pyridin-3-yl)piperazin-1-yl)propyl)quinolin-4-amine], the IC50 was 2.9 nM in assay [1] (setting [4]), 1.1 nM in assay [2] (setting [5]) and 2.07 nM in assay [3] (setting [6]).

In the case of `Nc1ccc(N2CCN(CCCNc3ccnc4cc(Cl)ccc34)CC2)cc1` [N-(3-(4-(4-aminophenyl)piperazin-1-yl)propyl)-7-chloroquinolin-4-amine], the half-maximal inhibitory concentration (IC50) in assay [1] (7G8, Erythrocyte, 72 h) was determined as 3.2 nM; in assay [2] (DD2, Erythrocyte, 72 h), 3.16 nM; in assay [3] (D6, Erythrocyte, 72 h), 1.8 nM.

As to `Cc1ccc(N2CCN(CCCNc3ccnc4cc(Cl)ccc34)CC2)cc1` [7-chloro-N-(3-(4-p-tolylpiperazin-1-yl)propyl)quinolin-4-amine], the results for the IC50 in assay [1] (setting [4]), in assay [2] (setting [5]) and in assay [3] (setting [6]) were 0.3 nM, 0.86 nM and 0.11 nM, respectively.

Take `O=[N+]([O-])c1ccc(N2CCN(CCCNc3ccnc4cc(Cl)ccc34)CC2)cc1` [7-chloro-N-(3-(4-(4-nitrophenyl)piperazin-1-yl)propyl)quinolin-4-amine]: the half-inhibitory concentration (IC50) in assay [1] (7G8, Erythrocyte, 72 h) was determined as 0.4 nM; in assay [2] (DD2, Erythrocyte, 72 h), 1.14 nM; in assay [3] (D6, Erythrocyte, 72 h), 0.8 nM.

Regarding `Clc1ccc2c(NCCCN3CCN(c4ncccn4)CC3)ccnc2c1` [7-chloro-N-(3-(4-(pyrimidin-2-yl)piperazin-1-yl)propyl)quinolin-4-amine], the concentration for half-maximal inhibition (IC50) in assay [1] (setting [4]) is 3.3 nM; in assay [2] (setting [5]), 1 nM; in assay [3] (setting [6]) it was 1.3 nM.

Take `COc1ccc(N2CCN(CCCNc3ccnc4cc(Cl)ccc34)CC2)cc1` [7-chloro-N-(3-(4-(4-methoxyphenyl)piperazin-1-yl)propyl)quinolin-4-amine]: the IC50 came out at 0.3 nM in assay [1] (setting [4]), 0.48 nM in assay [2] (setting [5]) and 0.1 nM in assay [3] (setting [6]).

Take `Clc1ccc2c(NCCCN3CCN(c4ccc(Cl)c(Cl)c4)CC3)ccnc2c1` [7-chloro-N-(3-(4-(3,4-dichlorophenyl)piperazin-1-yl)propyl)quinolin-4-amine]: the IC50 stood at 0.28 nM in assay [1] (7G8, Erythrocyte, 72 h); 0.9 nM in assay [2] (DD2, Erythrocyte, 72 h); 0.1 nM in assay [3] (D6, Erythrocyte, 72 h).

Consider `Clc1ccc2c(NCCCN3CCN(c4ccncc4)CC3)ccnc2c1` [7-chloro-N-(3-(4-(pyridin-4-yl)piperazin-1-yl)propyl)quinolin-4-amine], for which the IC50 in assay [1] (setting [4]) amounted to 6.8 nM; in assay [2] (setting [5]), 2 nM; in assay [3] (setting [6]) it was 2.07 nM.

Take `O=[N+]([O-])c1ccc(N2CCN(CCCNc3ccnc4cc(Cl)ccc34)CC2)c([N+](=O)[O-])c1` [7-chloro-N-(3-(4-(2,4-dinitrophenyl)piperazin-1-yl)propyl)quinolin-4-amine]: the IC50 in assay [1] (7G8, Erythrocyte, 72 h) worked out at 0.35 nM; in assay [2] (DD2, Erythrocyte, 72 h), 0.47 nM; in assay [3] (D6, Erythrocyte, 72 h), 0.3 nM.
